{"source": "patent US8614241B2", "about": "“Ester compound and use thereof” (Sumitomo Chemical Company, Limited, priority 2010, dated 2013)", "tested_on": "German cockroaches (Blattella germanica)", "assay": "Knock-down test by spraying oil solution on German cockroaches", "format": "in vivo", "details": "0.00625% (w/v) oil solution, 1.5 ml sprayed, ten adult German cockroaches (5 males, 5 females)", "description": "Zero point zero zero six two five (0.00625) part of the compound of the present inventions (1) and (2) was dissolved in 10 parts of isopropyl alcohol and the solution was mixed with 89.99375 parts of deodorized kerosene to prepare a 0.00625% (w/v) oil solution.\nTen adult German cockroaches (Blattella germanica, 5 males and 5 females) were released in a test container (diameter 8.75 cm, 7.5 cm high, the bottom face is made of 16 mesh metallic wire), the inner face on which butter was applied, and the container was set at the bottom of a test chamber (bottom face: 46 cm×46 cm, height: 70 cm).\nEach 1.5 ml of the oil solution of the compound of the present invention (1) and (2) was sprayed using a spray gun at a pressure of 0.4 kg/cm^2 from 60 cm higher than the upper face of the container. Thirty seconds after the spraying, the container was pulled out from the chamber. Two minutes after spraying, the number of knocked-down cockroaches was counted and a knock-down ratio was determined (repeated once). A knocked-down ratio was calculated by the following equation. Knocked-down ratio (%)=(Number of knocked-down cockroaches/Number of test cockroaches)×100 The results (2 minutes after spraying) are shown in Table 1.", "data": [{"molecule": "C#CCn1c(C)nn(COC(=O)[C@@H]2[C@@H](/C=C(\\C#N)C=C)C2(C)C)c1=O", "note": "[compound of the present invention (1), 3-methyl-5-oxo-4-(2-propynyl)-4,5-dihydro-[1,2,4]triazolylmethyl=(1R)-trans-3-[(1Z)-2-cyano-1,3-butadienyl]-2,2-dimethylcyclopropane carboxylate]", "values": [{"measurement": "Knock-down ratio (%) 2 minutes after spraying", "result": 100, "unit": "%"}]}, {"molecule": "C#CCn1c(C)nn(COC(=O)[C@@H]2[C@@H](/C=C(C#N)/C=C/C)C2(C)C)c1=O", "note": "[compound of the present invention (2), 3-methyl-5-oxo-4-(2-propynyl)-4,5-dihydro-[1,2,4]triazolylmethyl=(1R)-trans-3-[(1Z,3E)-2-cyano-1,3-pentadienyl]-2,2-dimethylcyclopropane carboxylate]", "values": [{"measurement": "Knock-down ratio (%) 2 minutes after spraying", "result": 100, "unit": "%"}]}]}
